# Laboratory results published in US20260209325A1, “SELECTIVE AND POTENT INHIBITORY ANTIBODIES OF MYOSTATIN ACTIVATION” (SCHOLAR ROCK, INC., priority 2022, published 2026).
# Where “and” joins values, the source holds several entries; their conditions need not be identical. Equal values may be shown once.
# Legend:
# [1] = type 2 diabetics, meta-analysis; cited from earlier work
# [2] = high fat diet mice treated with metformin and antibody (Example 4); assay type: in vivo, mouse; conditions: monotherapy, 45% high fat diet; FIG. 12A
# Experimental: Male C57/BL6 mice were fed a 60% high fat diet beginning at six weeks of age. At nineteen weeks of age (day 0), the mice were switched to a 45% high fat diet for 63 days. […] These mice were further divided into groups that received either 50 mg/kg of metformin or no metformin (Table 22a).
# Body weight and food intake were monitored three times per week throughout the study. On days 7, 35, 49, and 63, body composition was determined by qNMR, and glucose, ketones, and insulin were measured. At the end of the study on day 63, body composition was determined by qNMR; glucose, ketones, and insulin were measured, gastrocnemius muscle, whole liver, epididymal, and subcutaneous adipose tissue was collected and weighed.
# Male C57/BL6 mice (n=8/group) were fed a 60% HFD until week 18, at which time they are switched to a 45% HFD for 7 days. At day 7, animals in group 3-6 were treated with 50 mg/kg/day metformin, given orally throughout the remainder of the study.
# Body weight was measured three times per week; lean mass and fat mass were measured by qNMR on days 7, 35, 49, 63, and 77; serum glucose was also measured on days 7, 35, 49, 63, and 77; serum insulin was measured on days 49, 63, and 77. A glucose tolerance test (GTT) and an insulin tolerance test (ITT) was administered between day 56 and day 63.
# [3] = patients with SMA, Phase 2 (TOPAZ; NCT03921528); cited from earlier work
# [4] = target: latent myostatin (Homo sapiens, UniProt O14793); conditions: in vivo; cited from earlier work
# [5] = obese patients with type 2 diabetes; cited from earlier work
# [6] = system: follicle stimulating hormone (FSH); conditions: women; cited from earlier work
# [7] = Wilding et al. 2022; cited from earlier work
# [8] = system: leptin; assay: circulating leptin, U-PLEX Metabolic Hormones Combo 1 (Example 6); assay type: in vivo, mouse; conditions: FIG. 14K
# Experimental: Circulating leptin was measured using the U-PLEX Metabolic Hormones Combo 1 (mouse) according to manufacturer's instructions (Meso Scale Diagnostics, #K15306K-2). As expected, circulating leptin was higher in animals fed the high fat diet than animals fed a standard chow.
# [9] = Ab109 with 0.01 or 0.04 mg/kg semaglutide in DIO mice (Example 9); assay type: in vivo, mouse; conditions: for loss in perigonadal fat pad weight: FIG. 22A; for loss in inguinal fat pads: FIG. 22B; for loss in quadriceps weight: FIG. 21A
# Experimental: Male C57/BL6 male mice (n=8/group) were placed on a 60% high fat diet at […] of age and maintained on the 60% high fat diet until 21 weeks of age (Groups 1-12), at which time the study began (day −7). On day −7, animals in groups 1-12 were switched to a 45% high fat diet and maintained on the 45% high fat diet until the animals were terminated. […] Body weight was measured three times per week and qNMR measurements of lean mass and fat mass were obtained pre-dose on day 0 and on days 7, 14 and 21. Fasting glucose was measured on day 18 after a 4 hour fast.
# Animals in groups 3-12 were dosed with semaglutide daily for 3 weeks, then terminated. Animals in groups 1, 3, and 4 were treated with IgG control antibody, and those in groups 2, 5-12 were treated with myostatin activation inhibiting antibody treatment, for 3 weeks.
# At termination, left gastrocnemius and quadriceps muscles were removed and frozen; the liver was weighed, one lobe was frozen; epididymal (perigonadal) adipose tissue was removed and weighed; inguinal (subcutaneous) adipose tissue was removed and weighed; and a terminal serum bleed was obtained.
# [10] = semaglutide plus Ab109 in DIO mice incl. semaglutide withdrawal (Example 6); assay type: in vivo, mouse
# Experimental: Male C57/BL6 male mice (n=8/group) were either fed regular mouse chow (Group 1) or placed on a 60% high fat diet at six weeks of age and maintained on the 60% high fat diet until 21 weeks of age (Groups 2-8), at which time the study began (day 0). On day 0, animals in groups 2-8 were switched to a 45% high fat diet and maintained on the 45% high fat diet until the animals were terminated. […] Body weight was measured three times per week and qNMR measurements of lean mass and fat mass were obtained on the days set forth.
# Animals in groups 3 and 4 were dosed with semaglutide weekly for 14 days, then terminated. Animals in groups 5 and 6 (weight regain groups), were treated with semaglutide for 35 days, then the semaglutide treatment was ended while the myostatin activation inhibiting antibody treatment continued until the animals were terminated on day 63. The animals in Groups 7 and 8 were treated with semaglutide for 63 days, i.e., they remained on semaglutide until the study terminated on day 63.
# At termination, left and right gastrocnemius muscles were removed and frozen; the liver was weighed, one lobe was fixed, and the remainder was frozen; epididymal adipose tissue was removed and weighed; subcutaneous adipose tissue was removed and weighed; and a terminal serum bleed was obtained.
compound,measurement,setting,value
"CN(C)C(=N)N=C(N)N [metformin, reference compound]",effect on weight loss,[1],no effect on weight loss
same,fat mass gain,[2],Neither metformin alone nor Ab109 alone showed this effect
apitegromab: selective myostatin inhibitor antibody that targets pro/latent myostatin and inhibits its activation,efficacy and safety,[3],shown efficacy and safety
same,circulating latent myostatin in treated subjects,[4],elevated levels of circulating latent myostatin
bimagrumab: an anti-ActRIIB antibody,total body fat mass and lean mass,[5],reduce total body fat mass and increase lean mass
same,follicle stimulating hormone (FSH),[6],significantly reduce follicle stimulating hormone (FSH)
semaglutide [reference compound],regain of prior weight loss one year after discontinuing treatment,[7],regained two-thirds of their prior weight loss
same,circulating leptin,[8],lowered circulating leptin
same,loss in lean mass,"[9]; 0.01 mg/kg semaglutide, FIG. 20B",4.7%
same,loss of lean mass,"[9]; 0.04 mg/kg semaglutide and hIgG, 3 weeks, FIG. 20A",about 9.5%
same,body weight,"[9]; 45% high fat diet, semaglutide 0.01 or 0.04 mg/kg daily, 3 weeks, FIGS. 18A-B",lost weight
same,loss in perigonadal fat pad weight,[9]; semaglutide 0.01 mg/kg,−19.1%
same,loss in inguinal fat pads,[9]; semaglutide 0.01 mg/kg,−21.4%
same,fat mass loss,"[9]; semaglutide 0.04 mg/kg alone or with Ab109, FIG. 19A, 19C",induced fat mass loss
same,loss in perigonadal fat pad weight,[9]; semaglutide 0.04 mg/kg,−45.5%
same,loss in inguinal fat pads,[9]; semaglutide 0.04 mg/kg,−47.4%
same,loss in gastrocnemius muscle weight,"[9]; semaglutide 0.01 and 0.04 mg/kg, dose of each value not stated, FIG. 21B",−16.9% and −20.3%
same,loss in quadriceps weight,[9]; semaglutide high dose (0.04 mg/kg),−7.6%
same,loss in quadriceps weight,[9]; semaglutide low dose (0.01 mg/kg),−4.8%
same,body weight,"[10]; 45% high fat diet, semaglutide 0.04 mg/kg with hIgG or Ab109, incl. regain after withdrawal, FIG. 14A",lost weight
same,loss of lean mass while on semaglutide,[10]; semaglutide and hIgG,about 4%
same,net loss of lean mass at the end of the study,"[10]; semaglutide and hIgG, after semaglutide was stopped",2.5%
same,fat mass,"[10]; semaglutide, and regain after withdrawal with Ab109 or control IgG, FIG. 14D",induced fat mass loss
